Earlier results in patent publication US20240382508A1, “REGENERATIVE AGENT FOR BONE TISSUE AND LUNG TISSUE, AND PHARMACEUTICAL COMPOSITION FOR REGENERATING BONE TISSUE AND LUNG TISSUE” (NIIGATA UNIVERSITY, priority 2021, published 2024).

System: DEL-1
Conditions: versus resolvin D1 or DHEA; Non-Patent Document 1; cited from earlier work

CC[C@H]1OC(=O)[C@H](C)[C@@H](O[C@H]2C[C@@](C)(OC)[C@@H](O)[C@H](C)O2)[C@H](C)[C@@H](O[C@@H]2O[C@H](C)C[C@H](N(C)C)[C@H]2O)[C@](C)(O)C[C@@H](C)C(=O)[C@H](C)[C@@H](O)[C@]1(C)O [erythromycin]
DEL-1 induction potency relative to resolvin D1 or DHEA: about three
